From paper PMC7824081, “Inhibition of DOT1L by Half-Selenopsammaplin A Analogs Suppresses Tumor Growth and EMT-Mediated Metastasis in Triple-Negative Breast Cancer” (Pharmaceuticals, 2020)

Key:
[1] = test system: E-cadherin, N-cadherin, vimentin in MDA-MB-231 cells; test: Western blotting of EMT biomarkers in MDA-MB-231 cells; type: cell-based, human; settings: 24 h
Procedure: (§1) Total cell lysates were prepared in 2× sample loading buffer [250 mM Tris-HCl (pH 6.8), 10% glycerol, 4% sodium dodecyl sulfate (SDS), 2% β-mercaptoethanol, 0.006% bromophenol blue, 5 mM sodium orthovanadate, and 50 mM sodium fluoride; Bio-Rad, Hercules, CA, USA]. The protein concentrations of samples were quantified using the bicinchoninic acid (BCA) method and a BCA Protein Assay Kit (Thermo Fisher Scientific, Waltham, MA, USA). Equal amounts of protein (5–20 μg) were separated by 6–13% SDS-polyacrylamide gel electrophoresis (PAGE) and transferred to polyvinylidene fluoride membranes (Millipore, Bedford, MA, USA). The membranes were blocked with 5% bovine serum albumin (Sigma-Aldrich) and then probed with anti-DOT1L, anti-H3K79me2, anti-β-Actin, anti-histone H3, anti-H3K4me2, anti-H3K27me2, anti-H3K36me2, anti-H3K79me1, anti-H3K79me3, and anti-Vimentin antibodies purchased from Cell Signaling Technology (Beverly, MA, USA) or with anti-E-cadherin and anti-N-cadherin antibodies purchased from (BD Biosciences, San Jose, CA, USA). The blots were detected using a WEST-Queen detection system (iNtRON Biotechnology, Seongnam, Korea).

MDA-MB-231 cells = test: Transwell cell invasion assay; type: cell-based, human; settings: 24 h pretreatment, 24 h Transwell
Procedure: Twenty-four-well Transwell membrane inserts (diameter: 6.5 mm, pore size: 8 μm; Corning, Tewksbury, MA, USA) were each coated with 10 μL of type I collagen (0.5 mg/mL, BD Biosciences, San Diego, CA, USA) and 20 μL of a 1:20 mixture of Matrigel (BD Biosciences) in PBS. After treatment with the indicated compounds for 24 h, MDA-MB-231 human TNBC cells were harvested, resuspended in serum-free medium, and plated (2 × 10^5 cells/chamber) in the upper chambers of the Matrigel-coated Transwell inserts. Medium containing 30% FBS was used as a chemoattractant in the lower chambers. After a 24 h incubation, the cells that had migrated to the outer surfaces of the lower chambers were fixed and stained using the Diff-Quik Staining Kit (Sysmex, Kobe, Japan) and imaged using a Vectra 3.0 Automated Quantitative Pathology Imaging System (Perkin Elmer, Waltham, MA, USA). Representative images from three separate experiments are shown, and the numbers of invaded cells were counted in 5 randomly selected microscopic fields (200× magnification).

[2] = test system: H3K79 methylation (DOT1L) in MDA-MB-231 cells; test: Western blotting of H3K79 methylation in MDA-MB-231 cells; type: cell-based, human; settings: indicated concentrations, 48 h
Procedure: as §1

[3] = test system: MDA-MB-231/Luc cells-implanted orthotopic mouse model; test: MDA-MB-231/Luc-implanted orthotopic mouse tumor model; type: in vivo; settings: for tumor growth inhibition rate: end of experiment
Procedure: All animal experiments were conducted following the guidelines approved by the Seoul National University Institutional Animal Care and Use Committee (IACUC; permission number: SNU-180430-4-1). Female nude mice (BALB/c-nu), 4 weeks old, were purchased from Central Laboratory Animal, Inc. (Seoul, Korea) and housed under pathogen-free conditions with a 12 h light-dark schedule. Luciferase expressing MDA-MB-231 cells were inoculated orthotopically into the fourth fat pad of mice (1 × 10^7 cells in 100 μL of 50:50 PBS/Matrigel) using a 29-gauge needle. Two weeks after implantation, mice were randomized into vehicle control and treatment groups of six animals per group and were administered with vehicle (EtOH/Cremophor/Normal saline = 5:5:90), 9l (10 or 30 mg/kg body weight), EPZ-5676 (30 mg/kg body weight), or paclitaxel (5 mg/kg body weight, Sigma-Aldrich) as a positive reference control. Compounds were administered intraperitoneally three times per week for 38 days. An additional week later, anesthetized mice were positioned in IVIS (PerkinElmer, Waltham, MA, USA) and were imaged 15 min after injection of 150 mg/kg D-luciferin (Gold Biotechnology, St. Louis, MO, USA) resuspended in DPBS (w/o calcium or magnesium). Mice were euthanized and primary tumors and lungs were excised, weighed, and frozen for further biochemical analysis. The length (L), width (W), and height (H) of the tumors were also measured using a digital slide caliper (Mitutoyo, Kawasaki, Japan) once a week, and tumor volumes (mm^3) were estimated by the formula LWH/2. Toxicity was evaluated based on body weight loss.
A portion of the frozen tumors excised from nude mice on the termination day of the experiment was homogenized using a hand-held homogenizer in complete lysis buffer (Active Motif, Carlsbad, CA, USA). Aliquots were stored at −80 °C, and the levels of protein expression in the tumor lysates were determined. The protein concentrations in the tumor lysates were measured using the Bradford assay.

[4] = test system: other histone H3 methylated lysine residues in MDA-MB-231 cells; test: Western blotting of other methylated histone H3 lysine residues in MDA-MB-231 cells; type: cell-based, human; settings: 48 h
Procedure: as §1

DOT1L = biological target: T1, DOT1L (Homo sapiens, UniProt Q8TEK3); test: DOT1L enzyme activity assay (cell-free); type: biochemical; settings: 500 ng/well DOT1L, 2 h incubation
T1 construct: purchased BPS Bioscience 52202
Procedure: DOT1L enzyme activity was measured using 5 μM S-adenosyl methionine (SAM) as the methyl group donor, synthesized DOT1L substrate as the substrate, and 25 ng/μL DOT1L enzymes from BPS Bioscience (Cat. No. 52202; San Diego, CA, USA) according to the manufacturer’s instructions.

[5] = IVIS imaging, vs vehicle-treated control
[6] = western blotting of tumor lysates

T1 sequence (Q8TEK3 whole entry): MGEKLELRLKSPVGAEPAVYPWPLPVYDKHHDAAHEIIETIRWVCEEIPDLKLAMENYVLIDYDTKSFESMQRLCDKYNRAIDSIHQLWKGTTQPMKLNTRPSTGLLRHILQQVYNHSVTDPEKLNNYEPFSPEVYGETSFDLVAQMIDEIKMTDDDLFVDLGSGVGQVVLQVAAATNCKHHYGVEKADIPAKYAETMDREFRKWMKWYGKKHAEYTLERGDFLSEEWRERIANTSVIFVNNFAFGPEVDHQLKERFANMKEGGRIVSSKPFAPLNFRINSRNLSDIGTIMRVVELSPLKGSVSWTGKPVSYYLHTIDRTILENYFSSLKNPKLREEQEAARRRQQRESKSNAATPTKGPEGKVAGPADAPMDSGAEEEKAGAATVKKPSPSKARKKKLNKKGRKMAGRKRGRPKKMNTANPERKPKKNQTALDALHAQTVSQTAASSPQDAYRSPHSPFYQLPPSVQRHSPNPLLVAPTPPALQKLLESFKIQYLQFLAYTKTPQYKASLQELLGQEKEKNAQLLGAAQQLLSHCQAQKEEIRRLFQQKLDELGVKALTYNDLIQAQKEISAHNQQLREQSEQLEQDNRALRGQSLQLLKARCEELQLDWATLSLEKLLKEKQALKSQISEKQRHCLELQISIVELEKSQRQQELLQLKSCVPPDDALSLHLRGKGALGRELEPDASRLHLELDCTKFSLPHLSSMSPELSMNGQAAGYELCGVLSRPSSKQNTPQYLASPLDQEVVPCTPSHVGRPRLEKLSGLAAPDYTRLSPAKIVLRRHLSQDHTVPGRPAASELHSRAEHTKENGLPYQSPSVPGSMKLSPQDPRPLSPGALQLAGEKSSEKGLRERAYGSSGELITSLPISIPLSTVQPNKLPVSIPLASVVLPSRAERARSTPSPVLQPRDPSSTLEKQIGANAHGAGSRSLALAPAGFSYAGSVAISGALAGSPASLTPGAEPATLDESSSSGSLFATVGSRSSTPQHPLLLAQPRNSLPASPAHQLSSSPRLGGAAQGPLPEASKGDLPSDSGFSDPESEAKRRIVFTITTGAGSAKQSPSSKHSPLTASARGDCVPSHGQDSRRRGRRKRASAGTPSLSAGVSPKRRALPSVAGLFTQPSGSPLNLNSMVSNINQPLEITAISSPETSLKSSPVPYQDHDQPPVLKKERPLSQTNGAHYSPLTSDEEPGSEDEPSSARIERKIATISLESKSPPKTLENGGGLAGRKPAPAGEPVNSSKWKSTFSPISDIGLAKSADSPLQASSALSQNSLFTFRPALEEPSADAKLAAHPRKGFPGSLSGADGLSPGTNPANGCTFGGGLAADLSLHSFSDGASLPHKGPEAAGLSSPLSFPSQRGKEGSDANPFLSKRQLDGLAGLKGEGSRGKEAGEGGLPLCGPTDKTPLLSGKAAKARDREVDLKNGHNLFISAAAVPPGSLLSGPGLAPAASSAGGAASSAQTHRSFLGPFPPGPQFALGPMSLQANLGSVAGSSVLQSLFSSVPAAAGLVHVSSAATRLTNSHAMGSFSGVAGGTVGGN

CC(C)(C)c1ccc(C/C(=N\O)C(=O)NCC[Se]Sc2ccccc2)cc1 [9l, (E)-3-(4-(tert-Butyl)phenyl)-2-(hydroxyimino)-N-(2-((phenylthio)selanyl)ethyl)propanamide]
E-cadherin protein expression [1]: upregulation | N-cadherin protein expression [1]: downregulation | vimentin protein expression [1]: downregulation | cell invasion (MDA-MB-231 cells): significantly inhibited | H3K79 methylations [2]: effectively suppressed H3K79 methylations in a concentration-dependent manner | tumor growth inhibition rate ([3]; 10 mg/kg i.p., three times per week for 38 days): 44.0% | tumor growth inhibition rate ([3]; 30 mg/kg i.p., three times per week for 38 days): 55.8% | toxicity / body weight change ([3]; 10 or 30 mg/kg i.p., three times per week for 38 days): No overt toxicity or changes in body weight | luminescence signal intensity from the primary tumor sites [3, 5]: decreased | luminescence signal intensity in excised lung tissues (lung metastasis) [3, 5]: efficiently suppressed | E-cadherin level in excised tumors [3, 6]: upregulated | H3K79me2 protein level in excised tumors [3, 6]: downregulated | Ki-67 expression in tumor tissues [3, 6]: significantly suppressed | N-cadherin protein level in excised tumors [3, 6]: downregulated | vimentin protein level in excised tumors [3, 6]: downregulated | other histone H3 methylated lysine residues [4]: not affected | IC50 (DOT1L): 363 nM
